Measured values: patent US11180809B2, “Biological markers for identifying patients for treatment with abiraterone acetate” (JANSSEN PHARMACEUTICA NV, priority 2014, dated 2021)

What was measured:
[1] = system: metastatic castration-resistant prostate cancer (mCRPC); test: COU-AA-302 Phase 3 study: Cox regression association of tumor mRNA biomarker expression with rPFS/OS within the AA group; assay type: in vivo, human
Text: (§1) COU-AA-302 is a Phase 3, multinational, randomized, double-blind, placebo-controlled study comparing the efficacy and safety of AA and prednisone (AA+P) to placebo and prednisone (Placebo+P) in medically or surgically castrated asymptomatic or mildly symptomatic men with mCRPC who have not received cytotoxic chemotherapy. Patients were assigned in a 1:1 ratio to receive either AA+P or Placebo+P and were stratified based on ECOG performance status of 0 or 1, as discussed in Clinical Study Protocol: A Phase 3 Randomized, Double-blind, Placebo-controlled Study of Abiraterone Acetate (CB7630) Plus Prednisone in Asymptomatic or Mildly Symptomatic Subjects with Metastatic Castration Resistant Prostate Cancer. Protocol COU-AA-302; EudraCT No. 2008-008004-41; 9 Jul. 2012.
(§2) All subjects in Study COU-AA-302, regardless of treatment group, received concurrent prednisone. See Clinical Study Report: CSR COU-AA-302 2012. A Phase 3, Randomized, Double-Blind, Placebo-Controlled Study of Abiraterone Acetate Plus Prednisone in Asymptomatic or Mildly Symptomatic Subjects With Metastatic Castration-Resistant Prostate Cancer. Issue Date: 26 Oct. 2012. Subjects who received AA+P are referred to herein as the “AA group” and in tables as “AA.” Subjects who received Placebo+P are referred to herein as the “Placebo group” and in tables as “Placebo.” Additional study related details can be obtained from the COU-AA-302 clinical study protocol or clinical study report.
Formalin fixed paraffin embedded (FFPE) tumor samples from 258 subjects who optionally consented for RNA analysis were collected and shipped to the central laboratory (Covance, Ind.) for RNA analysis. FFPE samples from 152 subjects had sufficient RNA for TaqMan® Low Density Array (TLDA) analysis. Samples from the other 106 subjects were excluded either due to lack of tumor or low RNA yield. Of the 152 samples evaluated by TLDA, samples from 42 subjects were excluded from data analysis due to technical failures (no detectable gene expression or batch effects induced by microdissection of samples with low tumor content or low RNA input mass [<250 ng of total RNA]). The remaining evaluable samples from 110 subjects (Biomarker population) who were part of the ITT population (10%) and who had drug exposure with clinical data for at least one of the efficacy endpoints (rPFS, OS) were included in the analysis. Samples from these subjects were included in the mRNA analysis using the TaqMan® array microfluidic cards.
Raw CT values were filtered to remove values greater than 30. Quadruple replicate CT values were summarized using the geometric mean. Expression values were calculated using the comparative CT method as described in Schmittgen T D, Livak K J. Analyzing real-time PCR data by the comparative Ct method. Nature Protocols. 2008; 3:1101-1108. Briefly, a normalization factor was calculated for each sample using the geometric mean of housekeeping genes (ACTB and GAPDH). Relative expression values of all other transcripts were quantified as the difference between CT and the normalization factor. Transcript expression was calculated by the negation of the relative expression values to account for the inverse relationship between expression and CT. This is equivalent to the log 2 transform of 2^(-DeltaCT).
All statistical tests were interpreted at 5% significance levels (two-sided). For determination of specificity of biomarker association with clinical endpoints in AA group, a P<0.05 in the AA group and a P≥0.2 in the placebo group is required. Demographics and baseline characteristics were compared between the biomarker population and the ITT population using ANOVA (continuous variables) or Chi-Square (categorical variables) tests. […]

[2] = system: metastatic castration-resistant prostate cancer (mCRPC); test: COU-AA-302: multivariate biomarker panel classifier (low/high risk) versus radiographic progression free survival, independent test set; assay type: in vivo, human; conditions: test set (AA group), multivariate panel cutpoint 0.9977
Text: as §1, §2
A multivariate biomarker panel was identified using penalized regression to define a classifier that predicts radiographic progression free survival. The model was defined using an elastic net approach for feature selection and model specification. Data was separated into training and testing sets using a 70%-30% split. Within the training data, 10-fold cross-validation was used to define model parameters. Elastic net models have two parameters: alpha and lambda. Alpha is the elastic net penalty and determines the specific mixture of penalties that will be applied to limit complexity of the model. Lambda is the regularization penalty which determines the magnitude of the parameter used to limit complexity. After optimizing alpha and lambda using cross-validation, the values were used to define the cox regression model on the training data. The model is used to predict the relative risk of progression free-survival for all subjects in the training set. Then, time-dependent ROC analysis was used to determine the predictive power of the model and dichotomize the relative risk into two groups associated with low and high risk at the timepoint at which 90% of subjects with radiographic progression had observed recurrence of disease (t=20.48 months). This model, consisting of regression coefficients, timepoint and cutoff to discriminate between low and high risk, was applied to predict the relative risk of subjects in the independent test data and evaluate the predictive power and association with time to event of the classifier. This evaluation is repeated on the placebo data to confirm that the classifier is predictive of response to Abiraterone and not prognostic of outcome independent of treatment. Features used in the model building process included all single gene markers detected in greater than 50% of samples to exclude low expressing genes. The model was optimized to alpha=0.5 and lambda=0.209. Using these parameters, the optimized survival models were defined as described in Table 6.
Table 7 lists the predictive metrics which describe the performance of these models on the independent test and placebo group data.
Table 8 lists the statistics describing the association between classifier predictions and time to radiographic progression free survival.

[3] = AA group (AA+prednisone), Cox regression with baseline ECOG, continuous log2 expression, (95% CI)
[4] = AA group, Cox regression with baseline ECOG, (95% CI)
[5] = AA group, multivariate Cox regression model

CC(=O)O[C@H]1CC[C@@]2(C)C(=CC[C@@H]3[C@@H]2CC[C@]2(C)C(c4cccnc4)=CC[C@@H]32)C1 [AA, abiraterone acetate]
HR, association of ANLN expression with rPFS (IND) [1, 3]: 0.84 (0.72, 0.96)
HR, association of ANLN expression with rPFS (INV) [1, 3]: 0.80 (0.69, 0.93)
reduction of the hazard of rPFS event per unit increase in relative expression of ANLN ([1]; AA group, 1-0.84, unit = 2-fold difference relative to reference gene): 16%
HR, association of CYP17A1 and cofactors group composite score with OS ([1]; AA group, Cox regression): 0.20
HR, association of androgen controlled group composite score with OS ([1]; AA group, Cox regression): 0.31
HR, association of proliferation pathway module with rPFS (INV) ([1]; AA group, Cox regression): 0.63
HR, association of CYP17A1 and cofactors group composite score with rPFS (INV) [1, 4]: 0.71 (0.37, 1.36)
HR, association of HSD17B10 expression with rPFS (IND) [1, 4]: 0.78 (0.62, 0.98)
HR, association of HSD17B10 expression with rPFS (INV) [1, 4]: 0.76 (0.62, 0.94)
HR, association of NUSAP1 expression with rPFS (IND) [1, 4]: 0.82 (0.67, 1.00)
HR, association of NUSAP1 expression with rPFS (INV) [1, 4]: 0.78 (0.64, 0.95)
HR, association of SRD5A1 expression with rPFS (IND) [1, 4]: 0.80 (0.65, 0.98)
HR, association of SRD5A1 expression with rPFS (INV) [1, 4]: 0.83 (0.68, 1.00)
HR, association of UBE2C expression with rPFS (IND) [1, 4]: 0.85 (0.74, 0.98)
HR, association of UBE2C expression with rPFS (INV) [1, 4]: 0.81 (0.71, 0.93)
HR, association of ANLN expression with rPFS (IND), corrected for RNA extraction methodology [1, 5]: 0.86
HR, association of HSD17B10 expression with rPFS (IND), corrected for RNA extraction methodology [1, 5]: 0.78
HR, association of NUSAP1 expression with rPFS (IND), corrected for RNA extraction methodology [1, 5]: 0.78
HR, association of SRD5A1 expression with rPFS (IND), corrected for RNA extraction methodology [1, 5]: 0.79
HR, association of UBE2C expression with rPFS (IND), corrected for RNA extraction methodology ([1]; AA group, multivariate Cox regression model, trend of association): 0.88
HR, High versus Low risk, time to radiographic progression free survival ([2]; 95CI in next cell): 6.25
Median time to radiographic progression free survival, High risk ([2]; 95CI in next cell): 8.2
Event/Total (Perc), rPFS, High risk ([2]; percentage of events): (100.0)
Event/Total (Perc), rPFS, Low risk ([2]; percentage of events): (40.0)
Event/Total, rPFS, High risk ([2]; timepoint 20.4813): 4/4
Event/Total, rPFS, Low risk ([2]; timepoint 20.4813): 6/15
